The values that follow come from patent US8580794B2 (AbbVie Inc., priority 2009, dated 2013).

Molecules are shown by their SMILES.

Chain of GST-Bc1-2 (P10415 whole entry): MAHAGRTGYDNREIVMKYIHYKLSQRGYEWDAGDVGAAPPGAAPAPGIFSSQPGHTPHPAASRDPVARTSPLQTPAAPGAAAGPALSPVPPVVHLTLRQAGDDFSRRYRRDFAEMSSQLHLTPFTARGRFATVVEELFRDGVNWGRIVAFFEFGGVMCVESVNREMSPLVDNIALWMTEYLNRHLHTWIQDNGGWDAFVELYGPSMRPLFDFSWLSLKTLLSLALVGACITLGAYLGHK

The assay concerns the target GST-Bc1-2 (Homo sapiens, UniProt P10415). Put plainly: Time Resolved-Fluorescence Resonance Energy Transfer (TR-FRET) Bcl-2 binding assay with F-Bak peptide probe. As to conditions: GST-Bcl-2 1 nM, F-Bak probe 100 nM, Tb-anti-GST 1 nM; '<' = below limit of detection; read-out: TR-FRET Bcl-2 Binding Ki. Background: In TR-FRET formats the signal depends on donor and acceptor labels being close together.
On to `CC1(C)CCC(CN2CCN(c3ccc(C(=O)NS(=O)(=O)c4ccc(NC[C@H]5CC[C@H](C#N)CC5)c([N+](=O)[O-])c4)c(Oc4cnc5[nH]ccc5c4)c3)CC2)=C(c2ccc(Cl)cc2)C1` [Example 276, 4-(4-{[2-(4-chlorophenyl)-4,4-dimethylcyclohex-1-en-1-yl]methyl}piperazin-1-yl)-N-[(4-{[(trans-4-cyanocyclohexyl)methyl]amino}-3-nitrophenyl)sulfonyl]-2-(1H-pyrrolo[2,3-b]pyridin-5-yloxy)benzamide], for which the inhibition constant (Ki) is under 0.01 nM.
The figure for `CC1(C)CCC(CN2CCN(c3ccc(C(=O)NS(=O)(=O)c4cnc(OCC5(F)CCN(C6COC6)CC5)c(Cl)c4)c(Oc4cnc5[nH]ccc5c4)c3)CC2)=C(c2ccc(Cl)cc2)C1` [Example 277, N-[(5-chloro-6-{[4-fluoro-1-(oxetan-3-yl)piperidin-4-yl]methoxy}pyridin-3-yl)sulfonyl]-4-(4-{[2-(4-chlorophenyl)-4,4-dimethylcyclohex-1-en-1-yl]methyl}piperazin-1-yl)-2-(1H-pyrrolo[2,3-b]pyridin-5-yloxy)benzamide] is under 0.01 nM; for `CC1(C)CCC(CN2CCN(c3ccc(C(=O)NS(=O)(=O)c4cnc(OCCC5CCOCC5)c(C#N)c4)c(Oc4cnc5[nH]ccc5c4)c3)CC2)=C(c2ccc(Cl)cc2)C1` [Example 278, 4-(4-{[2-(4-chlorophenyl)-4,4-dimethylcyclohex-1-en-1-yl]methyl}piperazin-1-yl)-N-({5-cyano-6-[2-(tetrahydro-2H-pyran-4-yl)ethoxy]pyridin-3-yl}sulfonyl)-2-(1H-pyrrolo[2,3-b]pyridin-5-yloxy)benzamide] it is 0.252 nM; for `CC1(C)CCC(CN2CCN(c3ccc(C(=O)NS(=O)(=O)c4ccc(OCc5ccoc5)c([N+](=O)[O-])c4)c(Oc4cnc5[nH]ccc5c4)c3)CC2)=C(c2ccc(Cl)cc2)C1` [Example 279, 4-(4-{[2-(4-chlorophenyl)-4,4-dimethylcyclohex-1-en-1-yl]methyl}piperazin-1-yl)-N-{[4-(3-furylmethoxy)-3-nitrophenyl]sulfonyl}-2-(1H-pyrrolo[2,3-b]pyridin-5-yloxy)benzamide] it is 0.035 nM.
To `CC1(C)CCC(CN2CCN(c3ccc(C(=O)NS(=O)(=O)c4cnc(OC[C@@H]5CCN(C(CF)CF)C5)c(Cl)c4)c(Oc4cnc5[nH]ccc5c4)c3)CC2)=C(c2ccc(Cl)cc2)C1` [Example 280, N-[(5-chloro-6-{[(3R)-1-(1,3-difluoropropan-2-yl)pyrrolidin-3-yl]methoxy}pyridin-3-yl)sulfonyl]-4-(4-{[2-(4-chlorophenyl)-4,4-dimethylcyclohex-1-en-1-yl]methyl}piperazin-1-yl)-2-(1H-pyrrolo[2,3-b]pyridin-5-yloxy)benzamide] belongs 0.071 nM; to `CC1(C)CCC(CN2CCN(c3ccc(C(=O)NS(=O)(=O)c4cnc(OC[C@@H]5CCN(CC(F)F)C5)c(Cl)c4)c(Oc4cnc5[nH]ccc5c4)c3)CC2)=C(c2ccc(Cl)cc2)C1` [Example 281, N-[(5-chloro-6-{[(3R)-1-(2,2-difluoroethyl)pyrrolidin-3-yl]methoxy}pyridin-3-yl)sulfonyl]-4-(4-{[2-(4-chlorophenyl)-4,4-dimethylcyclohex-1-en-1-yl]methyl}piperazin-1-yl)-2-(1H-pyrrolo[2,3-b]pyridin-5-yloxy)benzamide], 0.145 nM.
The figure for `CC1(C)CCC(CN2CCN(c3ccc(C(=O)NS(=O)(=O)c4cnc(OCC5(F)CCN(C(CF)CF)CC5)c(Cl)c4)c(Oc4cnc5[nH]ccc5c4)c3)CC2)=C(c2ccc(Cl)cc2)C1` [Example 282, N-[(5-chloro-6-{[1-(1,3-difluoropropan-2-yl)-4-fluoropiperidin-4-yl]methoxy}pyridin-3-yl)sulfonyl]-4-(4-{[2-(4-chlorophenyl)-4,4-dimethylcyclohex-1-en-1-yl]methyl}piperazin-1-yl)-2-(1H-pyrrolo[2,3-b]pyridin-5-yloxy)benzamide] is under 0.01 nM.
With `CN1CCC(F)(COc2ccc(S(=O)(=O)NC(=O)c3ccc(N4CCN(CC5=C(c6ccc(Cl)cc6)CC(C)(C)CC5)CC4)cc3Oc3cnc4[nH]ccc4c3)cc2Cl)CC1` [Example 283, N-({3-chloro-4-[(4-fluoro-1-methylpiperidin-4-yl)methoxy]phenyl}sulfonyl)-4-(4-{[2-(4-chlorophenyl)-4,4-dimethylcyclohex-1-en-1-yl]methyl}piperazin-1-yl)-2-(1H-pyrrolo[2,3-b]pyridin-5-yloxy)benzamide], the inhibition constant (Ki) was under 0.01 nM.
For `CC1(C)CCC(CN2CCN(c3ccc(C(=O)NS(=O)(=O)c4ccc(OCC5CCOCC5)c(C#N)c4)c(Oc4cnc5[nH]ccc5c4)c3)CC2)=C(c2ccc(Cl)cc2)C1` [Example 284, 4-(4-{[2-(4-chlorophenyl)-4,4-dimethylcyclohex-1-en-1-yl]methyl}piperazin-1-yl)-N-{[3-cyano-4-(tetrahydro-2H-pyran-4-ylmethoxy)phenyl]sulfonyl}-2-(1H-pyrrolo[2,3-b]pyridin-5-yloxy)benzamide], the Ki came to 0.024 nM.
Consider `CC1(C)CCC(CN2CCN(c3ccc(C(=O)NS(=O)(=O)c4cnc(OCC5(F)CCN(CC(F)F)CC5)c(Cl)c4)c(Oc4cnc5[nH]ccc5c4)c3)CC2)=C(c2ccc(Cl)cc2)C1` [Example 285, N-[(5-chloro-6-{[1-(2,2-difluoroethyl)-4-fluoropiperidin-4-yl]methoxy}pyridin-3-yl)sulfonyl]-4-(4-{[2-(4-chlorophenyl)-4,4-dimethylcyclohex-1-en-1-yl]methyl}piperazin-1-yl)-2-(1H-pyrrolo[2,3-b]pyridin-5-yloxy)benzamide], for which the inhibition constant (Ki) was under 0.01 nM.
To `CC1(C)CCC(CN2CCN(c3ccc(C(=O)NS(=O)(=O)c4ccc(OCC5(F)CCOCC5)c(Cl)c4)c(Oc4cnc5[nH]ccc5c4)c3)CC2)=C(c2ccc(Cl)cc2)C1` [Example 286, N-({3-chloro-4-[(4-fluorotetrahydro-2H-pyran-4-yl)methoxy]phenyl}sulfonyl)-4-(4-{[2-(4-chlorophenyl)-4,4-dimethylcyclohex-1-en-1-yl]methyl}piperazin-1-yl)-2-(1H-pyrrolo[2,3-b]pyridin-5-yloxy)benzamide] belongs under 0.01 nM.
To `CC1(C)CCC(CN2CCN(c3ccc(C(=O)NS(=O)(=O)c4cnc(OCC5CCC(F)(F)CC5)c(Cl)c4)c(Oc4cnc5[nH]ccc5c4)c3)CC2)=C(c2ccc(Cl)cc2)C1` [Example 287, N-({5-chloro-6-[(4,4-difluorocyclohexyl)methoxy]pyridin-3-yl}sulfonyl)-4-(4-{[2-(4-chlorophenyl)-4,4-dimethylcyclohex-1-en-1-yl]methyl}piperazin-1-yl)-2-(1H-pyrrolo[2,3-b]pyridin-5-yloxy)benzamide] belongs 0.081 nM.
The figure for `CC1(C)CCC(CN2CCN(c3ccc(C(=O)NS(=O)(=O)c4cnc(OCC5(F)CCN(C(CF)CF)CC5)c(C(F)(F)F)c4)c(Oc4cnc5[nH]ccc5c4)c3)CC2)=C(c2ccc(Cl)cc2)C1` [Example 288, 4-(4-{[2-(4-chlorophenyl)-4,4-dimethylcyclohex-1-en-1-yl]methyl}piperazin-1-yl)-N-{[6-{[1-(1,3-difluoropropan-2-yl)-4-fluoropiperidin-4-yl]methoxy}-5-(trifluoromethyl)pyridin-3-yl]sulfonyl}-2-(1H-pyrrolo[2,3-b]pyridin-5-yloxy)benzamide] is 0.251 nM.

A word on the Ki: it is the dissociation constant of the complex between target and ligand, obtained from inhibition or displacement.
